Results on three compounds are retold here after patent US9532983B2, “Benzofuran compounds, compositions, kits and/or methods thereof” (Savannah State University, priority 2013, dated 2017).

pKi: −log10 of the molar value. Where “and” joins values, the source holds several entries; their conditions need not be identical. Equal entries are not always repeated. Entries after “also recorded” stand apart in the source; their conditions may differ.

One data set deals with T1, 5-HT2B (Homo sapiens, UniProt P41595).
T1 construct: expressed in transfected cells
T1 sequence (P41595 whole entry, species assumed): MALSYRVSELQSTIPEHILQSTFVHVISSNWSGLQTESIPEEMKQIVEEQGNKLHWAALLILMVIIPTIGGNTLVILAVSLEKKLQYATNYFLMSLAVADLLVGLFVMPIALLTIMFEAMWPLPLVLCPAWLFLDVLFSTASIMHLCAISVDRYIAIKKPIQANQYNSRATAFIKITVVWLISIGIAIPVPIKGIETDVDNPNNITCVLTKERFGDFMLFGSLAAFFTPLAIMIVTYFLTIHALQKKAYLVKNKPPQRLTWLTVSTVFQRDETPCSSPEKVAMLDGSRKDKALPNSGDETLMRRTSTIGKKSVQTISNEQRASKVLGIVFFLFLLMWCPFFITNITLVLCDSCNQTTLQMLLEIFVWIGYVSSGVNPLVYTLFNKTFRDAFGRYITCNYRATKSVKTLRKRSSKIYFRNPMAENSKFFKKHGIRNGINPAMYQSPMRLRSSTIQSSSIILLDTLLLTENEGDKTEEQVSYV
The data set is described as follows: Secondary binding assay, Ki determination: 5-HT2B.

The next data set concerns MA-10 cells. The experiment in a line: Cell viability assay (MTT) in MA-10 cells. The data set is classed as cell-based, mouse. The settings on record: 24 h, varying concentrations. The method, then:
Mouse Leydig cell line (MA-10) was grown in Waymouth media containing 15% horse serum, 5% fetal bovine serum, and 1× gentamycin, which was replaced with […] G418 (geneticin) for VDAC1 knockdown (ΔVDAC1) MA10 cells. Cells were maintained at 37° C. in a humidified incubator under 5% CO2. To isolate mitochondria, cells were removed from tissue culture plates by gentle scrapping in phosphate-buffered saline at room temperature, incubated in hypotonic buffer (10 mM HEPES, pH 7.4) for 30 to 40 min, and mitochondria were isolated following readily available procedures. The mitochondrial preparation was verified by Western blotting with the cytochrome P450 SCC enzyme (Corgen, Tapai, Taiwan) and calnexin antibodies (Santa Cruz Biotechnology, Inc., Santa Cruz, Calif.).
Stock solutions (1 mM) of the ligands were made in 1× phosphate buffered saline, filter-sterilized, and then further diluted up to 1 μM with serum-free medium. Cell viability was determined by the 3-[4,5-dimethylthiazol-2yl]-2,5-diphenyltetrazolium bromide assay using a commercially available kit following the manufacturer's instructions (Promega, Madison, Wis.). MA-10 cells were plated in a 96-well plate at an initial density of 4×10^3 cells per well for 24 h at 37° C. in 5% CO2 atm. After 24 h of serum starvation, the culture media were changed to serum-free media containing 1, 5, 10, 50, and 100 nM concentration for each KSCM ligand. Next, the cells were incubated for 2 to 3 h with 0.5 mg/ml of 3-[4,5-dimethylthiazol-2yl]-2,5-diphenyltetrazolium bromide reagent and lysed with dimethyl sulfoxide, and the absorbance was measured at 550 nm (FlexStation 3; Molecular Devices, Sunnyvale, Calif.).

Another data set concerns non-sigma receptors. The experiment in a line: Binding screen against panel of non-sigma receptors (overall statement). The method, then:
Initial primary binding screening assays were performed using a 50 μM (initial)−10 μM (final) assay concentration of reference and test compounds.

The target in another data set is T2, σ1 receptor (Rattus norvegicus, UniProt Q9R0C9).
T2 construct: crude membrane fractions prepared from rat brain homogenate for σ1 receptors; from tissue; host or cells: rat brain homogenate, crude membrane fraction
T2 sequence (Q9R0C9 whole entry): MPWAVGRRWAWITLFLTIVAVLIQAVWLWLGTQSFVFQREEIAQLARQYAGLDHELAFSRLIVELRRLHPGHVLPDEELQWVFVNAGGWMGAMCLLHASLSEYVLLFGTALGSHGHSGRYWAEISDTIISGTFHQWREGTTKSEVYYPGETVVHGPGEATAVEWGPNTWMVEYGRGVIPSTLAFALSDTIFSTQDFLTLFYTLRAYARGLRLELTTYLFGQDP
The experiment in a line: Secondary binding assay, Ki determination at σ1 receptor ([3H]pentazocine). The settings on record: rat brain homogenate, read-out: σ-1 (Ki).

The next data set has as its target T3, Alpha2A (Homo sapiens, UniProt P08913).
T3 construct: expressed in transfected cells
T3 sequence (P08913 1-465): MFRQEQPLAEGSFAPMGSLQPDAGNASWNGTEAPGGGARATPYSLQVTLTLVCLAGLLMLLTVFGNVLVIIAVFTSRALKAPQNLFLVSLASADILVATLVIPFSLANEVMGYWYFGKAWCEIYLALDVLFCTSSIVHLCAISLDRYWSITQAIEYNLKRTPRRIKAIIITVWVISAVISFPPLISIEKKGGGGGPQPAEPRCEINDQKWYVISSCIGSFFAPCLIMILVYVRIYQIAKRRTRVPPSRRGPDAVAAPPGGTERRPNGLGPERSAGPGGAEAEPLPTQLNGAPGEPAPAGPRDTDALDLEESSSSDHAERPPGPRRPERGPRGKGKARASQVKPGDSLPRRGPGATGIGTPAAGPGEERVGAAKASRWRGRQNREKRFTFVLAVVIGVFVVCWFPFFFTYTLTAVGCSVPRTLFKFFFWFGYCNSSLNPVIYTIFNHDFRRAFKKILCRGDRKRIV
The data set is described as follows: Secondary binding assay, Ki determination: Alpha2A.

The next data set concerns the target T4, Alpha2C (Homo sapiens, UniProt P18825).
T4 construct: expressed in transfected cells
T4 sequence (P18825 1-462): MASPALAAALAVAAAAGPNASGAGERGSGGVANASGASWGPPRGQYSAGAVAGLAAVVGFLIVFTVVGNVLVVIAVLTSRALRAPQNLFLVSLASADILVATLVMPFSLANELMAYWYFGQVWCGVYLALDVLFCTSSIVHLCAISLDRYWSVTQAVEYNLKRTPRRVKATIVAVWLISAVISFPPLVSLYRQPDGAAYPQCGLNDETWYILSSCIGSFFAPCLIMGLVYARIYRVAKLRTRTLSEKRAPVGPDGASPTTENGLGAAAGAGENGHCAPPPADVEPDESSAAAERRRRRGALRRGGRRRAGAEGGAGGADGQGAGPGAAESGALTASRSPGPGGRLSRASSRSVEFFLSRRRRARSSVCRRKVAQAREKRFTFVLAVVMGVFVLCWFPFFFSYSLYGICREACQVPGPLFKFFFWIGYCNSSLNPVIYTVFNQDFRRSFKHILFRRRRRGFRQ
The data set is described as follows: Secondary binding assay, Ki determination: Alpha2C.

A further data set deals with T5, 5HT3 (Homo sapiens, UniProt P46098).
T5 construct: expressed in transfected cells
T5 sequence (P46098 24-478): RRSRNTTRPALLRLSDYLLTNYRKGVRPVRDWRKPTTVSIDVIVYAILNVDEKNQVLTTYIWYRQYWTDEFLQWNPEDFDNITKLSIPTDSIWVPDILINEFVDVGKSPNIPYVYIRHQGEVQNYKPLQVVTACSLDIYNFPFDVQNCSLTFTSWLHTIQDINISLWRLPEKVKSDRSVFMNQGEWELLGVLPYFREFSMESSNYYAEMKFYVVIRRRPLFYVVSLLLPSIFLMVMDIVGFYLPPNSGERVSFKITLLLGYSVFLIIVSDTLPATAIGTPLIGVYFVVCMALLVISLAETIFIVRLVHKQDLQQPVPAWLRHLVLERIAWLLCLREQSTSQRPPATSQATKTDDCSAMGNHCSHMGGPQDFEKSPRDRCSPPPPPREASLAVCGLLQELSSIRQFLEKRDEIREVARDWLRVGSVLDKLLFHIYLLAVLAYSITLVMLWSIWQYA
The data set is described as follows: Secondary binding assay, Ki determination: 5HT3.

The next data set has as its target T6, M4 (Homo sapiens, UniProt P08173).
T6 construct: expressed in transfected cells
T6 sequence (P08173 1-479): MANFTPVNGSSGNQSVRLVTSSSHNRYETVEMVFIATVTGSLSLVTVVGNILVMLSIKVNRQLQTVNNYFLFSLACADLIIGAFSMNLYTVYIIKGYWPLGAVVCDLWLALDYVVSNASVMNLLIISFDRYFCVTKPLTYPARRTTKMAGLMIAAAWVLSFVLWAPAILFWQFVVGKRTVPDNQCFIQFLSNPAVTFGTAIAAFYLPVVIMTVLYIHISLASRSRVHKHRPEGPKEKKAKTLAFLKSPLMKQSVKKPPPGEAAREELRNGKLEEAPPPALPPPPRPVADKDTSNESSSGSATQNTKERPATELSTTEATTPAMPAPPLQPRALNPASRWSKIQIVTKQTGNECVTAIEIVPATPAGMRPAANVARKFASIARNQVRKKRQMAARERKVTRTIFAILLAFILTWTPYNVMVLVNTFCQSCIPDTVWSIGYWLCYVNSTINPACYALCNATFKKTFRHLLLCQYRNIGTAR
The experiment in a line: Secondary binding assay, Ki determination: M4.

Regarding `COc1ccc2c(C)c(C(=O)N(CCCN3CCCCC3)c3ccccc3)oc2c1` [KSCM-11, 6-Methoxy-3-methyl-N-phenyl-N-(3-(piperidin-1-yl)propyl)benzofuran-2-carboxamide], affinity on 5-HT2B was put at a Ki of 204 nM. Also, the “toxicity / effect on cell viability compared among the ligands (in words)” value in the data set with MA-10 cells was “greater cytotoxic effect than KSCM-1”. In the data set with non-sigma receptors, the “affinity at non-sigma receptors selected for secondary binding assay (in words)” value was “no significant affinity”; the “selectivity for sigma receptors (σ1 and σ2) over non-sigma receptors (in words)” value is “have the desired selectivity for sigma receptors”. Moreover, the negative logarithm of the Ki (pKi) (in general, the negative decadic logarithm of the Ki, by convention in mol/L) at σ1 receptor is 7.47. The inhibition constant Ki (usually the dissociation constant of the complex between target and ligand, obtained from inhibition or displacement) at Alpha2A came to 653 nM.
On to `Cc1c(C(=O)N(CCCN2CCCCC2)c2ccccc2)oc2ccccc12` [KSCM-5, 3-Methyl-N-phenyl-N-(3-(piperidin-1-yl)propyl)benzofuran-2-carboxamide], for which the figures for the Ki at 5-HT2B, at Alpha2C and on Alpha2A were 936 nM, 249 nM and 1230 nM, respectively. In addition, in the data set with MA-10 cells, the “toxicity / effect on cell viability compared among the ligands (in words)” value is “most potent decrease in cell viability; also recorded: greatest toxicity”.
In the case of `COc1cc2oc(C(=O)N(CCCN3CCCCC3)c3ccccc3)c(C)c2cc1OC` [KSCM-1, 5,6-Dimethoxy-3-methyl-N-phenyl-N-(3-(piperidin-1-yl)propyl)benzofuran-2-carboxamide], the negative-log Ki (pKi) on σ1 receptor is 7.57 and 7.56. In addition, the results for the inhibition constant (Ki) at 5HT3, on Alpha2C and at M4 were 7610 nM, 1540 nM and 2870 nM, respectively.
